These results are taken from patent US20220072162A1, “MAGNETIC RESONANCE IMAGING DRUG CONTAINING A DEUTERATED NATURAL BRANCHED-CHAIN AMINO ACID, AND DIAGNOSTIC METHOD USING SAID DRUG” (LIMITED LIABILITY COMPANY "SOLVEX" ("SOLVEX" LLC), priority 2018, published 2022).

For data set [1] the following is noted: in vivo; cited from earlier work.
In the next data set the test system is 4T1 breast carcinoma. In words: Deuterium tomography (2H MRI) to visualize mouse 4T1 breast carcinoma in vivo (Examples 2, 4). The following applies: for accumulation in tumor tissue (2H tomograms): i.p. to 20 g mouse: 20 mg valine-d6, 30 mg L-alanine-d3, 10 mg L-phenylalanine-d7; for accumulation selectivity in various organs (2H tomograms): i.p. to 20 g mouse: 30 mg L-alanine-d3, 10 mg L-phenylalanine-d7.

On data set [2], the source says: This exchange lowers the concentration of the deuterium label, while simultaneously increasing the background signal of heavy water (DOH), which is evenly distributed throughout the body due to rapid diffusion. This process leads to a decrease in the contrast of the image, and also prevents quantitive evaluation of deuterated component concentration by comparison with the intensity of natural DOH signal.

Data set [3] can be described thus: Solubility in water for injection. Format: physicochemical. The following applies: 10 mg in 1.0 ml of water was the dose given.
For data set [4] the following is noted: in vivo; cited from earlier work. The source holds these as a separate data set.
Data set [5] can be described thus: Accumulation of freely diffusing deuterated compounds in organs and tissues. In kind it is in vivo. To be noted: authors' experiments and prior art.
Data set [6] is described as follows: Distribution and metabolism of deuterated valine mixture in tissues, isotopomer ratio by LC-MS/MS (Example 6). In kind it is in vivo, Balb/c mice. To be noted: 60 minutes after 20 mg i.p., 49% in initial drug. As to the method:
In this example, L-valine-d6/d7, partially deuterated at the α position and positions 4, 4′, was used. (S-valine-d6/d7). The total molar fraction of α-deuterated forms of valine in the initial diagnostic drug is 49%.
After administration, the animal was kept in a separate cage with access to food and water. After 60 minutes after administration, the animal was devitalized by dislocation of the cervical vertebrae. Samples of animal organs and tissues were quickly removed and frozen in liquid nitrogen. Frozen samples were ground in a porcelain mortar while cooling with liquid nitrogen. A weighed portion (about 50 mg) of the obtained powder was quickly introduced into 0.4% hydrochloric acid (1.0 ml) heated to 98° C. The resulting suspension was kept at 98° C. for 15 min with occasional shaking, then centrifuged. The solution was diluted with 3 volumes of acetonitrile, centrifuged after 15 minutes, diluted with 9 volumes of water, and centrifuged again. The ratio of isotopomers d5, d6, and d7 of valine was determined by LC-MS/MS.

The conditions of data set [7]: in vivo; cited from earlier work. This is another data set of the same source.
The nature of data set [8]: Content of valine-d6 in tissues of mice with 4T1 breast carcinoma, 2H NMR of tissue extracts (Example 5). The following applies: for [valine-d6], 30 min.: 30 min after 20 mg i.p. to 20 g mouse; for [valine-d6], 1 hour: 1 hour after 20 mg i.p. to 20 g mouse. In kind it is in vivo, Balb/c mice. As to the method: After administration, the animal was kept in a separate cage with access to food and water. After a certain time after administration, the animal was devitalized by dislocation of the cervical vertebrae. Samples of animal organs and tissues were quickly removed and frozen in liquid nitrogen. Frozen samples were ground in a porcelain mortar while cooling with liquid nitrogen. A weighed portion (50-200 mg) of the obtained powder was quickly introduced into 0.4% hydrochloric acid (0.6-1.0 ml) heated to 98° C. The resulting suspension was kept at 98° C. for 15 min with occasional shaking. After adding an internal standard (3-O—(CD3)-glucose solution), the mixture was shaken and centrifuged until the solid fractions were completely separated. The solution was analyzed by ^2H NMR.

For data set [9] the following is noted: rat, in vivo, 0.021 mg/kg; cited from earlier work.

As to `[2H]O` [DOH], the “non-toxic replacement of water in the body” value in [1] is on record as 10-30%.
Consider `[2H]C([2H])([2H])[C@H](N)C(=O)O` [L-alanine-3,3,3-d3], for which, in the data set on 4T1 breast carcinoma, the “accumulation in tumor tissue (2H tomograms)” value is given as “do not accumulate in tumor tissue” and the “accumulation selectivity in various organs (2H tomograms)” value is “do not show accumulation selectivity in various organs”. Moreover, the “loss of deuterium in vivo” value in data set [2] was “lose deuterium in vivo very quickly”.
As for `[2H]c1c([2H])c([2H])c(C([2H])([2H])[C@H](N)C(=O)O)c([2H])c1[2H]` [L-phenylalanine-β,β,2,3,4,5,6-d7], the solubility result in [3] is recorded as “low solubility”. For the same molecule, in the data set on 4T1 breast carcinoma, the “accumulation in tumor tissue (2H tomograms)” value is reported as “do not accumulate in tumor tissue” and the “accumulation selectivity in various organs (2H tomograms)” value was “do not show accumulation selectivity in various organs”.
For `CC(C)[C@H](N)[11C](=O)O` [1-^11C-valine], in data set [4], the “organ of main accumulation” value was “accumulate mainly in the pancreas”.
Regarding `[2H]O[2H]` [D2O], in data set [5], the “selective accumulation in various organs and tissues” value is “do not show selective accumulation”.
For “Valine-2,4,4,4,4 “, 4”, 4′-D7 (mixed with valine-4,4,4,4 “, 4”, 4′-D6) [L-valine-d6/d7]”, the “total mole fraction of α-deuterated valine” value is 11% in [6] (adipose tissue); 12% in data set [6] (blood); 5% in [6] (brain); 17% in data set [6] (kidneys); 11% in data set [6] (liver); 11% in data set [6] (skeletal muscles). The “total mole fraction of α-deuterated valine” value in data set [6] (spleen) worked out at 13%; in data set [6] (tumor), 12%.
Consider `CC(C)C(N)[14C](=O)O` (stereo not shown) [^14C-valine], for which the “time within which most of the label accumulated in liver and pancreas is included in protein” value in [7] was no more than 10 min.
Take `[2H]C([2H])([2H])C([C@H](N)C(=O)O)C([2H])([2H])[2H]` [valine-d6, Valine-4,4,4,4′, 4′, 4′-D6]: the “accumulation in tumor tissue compared to kidneys, heart, brain, skeletal muscles and adipose tissue” value in data set [8] (1 hour after the injection) is “increased accumulation”. The “[valine-d6], 30 min.” value in data set [8] (Brain) came to 1.6 µmol/g; in data set [8] (Fat tissue), 4.0 µmol/g; in data set [8] (Heart), 7.5 µmol/g; in data set [8] (Kidneys), 9.3 µmol/g; in [8] (Liver) it was 17.9 µmol/g; in data set [8] (Lungs), 10.6 µmol/g. Also, the “[valine-d6], 30 min.” value in [8] (Sceletal muscles) came to 7.4 µmol/g; in [8] (Spleen) it was 14.7 µmol/g; in [8] (Tumor) it was 9.2 µmol/g. Further, the “[valine-d6], 1 hour” value is 2.6 µmol/g in data set [8] (Brain); 1.7 µmol/g in data set [8] (Fat tissue); 8.0 µmol/g in data set [8] (Heart); 7.5 µmol/g in data set [8] (Kidneys); 11.5 µmol/g in data set [8] (Liver); 8.8 µmol/g in data set [8] (Lungs). The “[valine-d6], 1 hour” value worked out at 7.7 µmol/g in data set [8] (Sceletal muscles), 14.1 µmol/g in data set [8] (Spleen) and 9.8 µmol/g in data set [8] (Tumor). For the same molecule, the “Tumor:tissue ratio, 30 min.” value in [8] (Tumor:Brain) came out at 5.8; in data set [8] (Tumor:Fat tissue), 2.3; in data set [8] (Tumor:Heart), 1.2; in [8] (Tumor:Kidneys), 0.99; in data set [8] (Tumor:Liver) it was 0.51; in data set [8] (Tumor:Lungs), 0.87. Besides, the “Tumor:tissue ratio, 30 min.” value in [8] (Tumor:Sceletal muscles) came out at 1.2; in data set [8] (Tumor:Spleen), 0.63. Also, the “Tumor:tissue ratio, 1 hour” value in data set [8] (Tumor:Brain) was determined as 3.8; in data set [8] (Tumor:Fat tissue), 5.8; in [8] (Tumor:Heart) it was 1.2; in [8] (Tumor:Kidneys) it was 1.3; in data set [8] (Tumor:Liver), 0.85; in [8] (Tumor:Lungs), 1.1. Also, the “Tumor:tissue ratio, 1 hour” value in [8] (Tumor:Sceletal muscles) came out at 1.3; in data set [8] (Tumor:Spleen), 0.70. The “excess over the physiological concentration of free valine in animal tissues” value in data set [8] (physiological free valine about 0.5 μmol/g) is “more than 10 fold”.
For the molecule `[2H]C([2H])(N)C(=O)O` [glycine-2,2-d2], the “loss of deuterium in vivo” value in data set [2] was “lose deuterium in vivo very quickly”.
Consider `CC(C)C(N)[14C](=O)O` (racemic) [DL-1-^14C-valine], for which, in [9], the “increase of absolute concentration of valine in liver and kidneys over physiological” value is given as “no more than 0.3 nmol/g”. For the same molecule, in [4], the “elimination of isotopic label in the form of CO2” value is listed as 28% and the “organ of main accumulation” value is “accumulate mainly in the pancreas”.
